≈ marks a conversion by molar mass, not a printed value.
Tests used:
[1] = Solubility at pH 6.8; type: physicochemical; settings: pH 6.8, aqueous buffer, thermodynamic from solid; read-out: solubility
How it was run: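 Following the procedure of Zhou et al. (2007), compound solubility was determined at pH 6.8.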

[2] = biological target: T1, mTOR (Homo sapiens, UniProt P42345); assay: Biochemical assay for m-TOR by TR-FRET; settings: 8 μM ATP, 400 nM GFP-4EBP1, 0.5 nM mTOR
T1 construct: purchased Invitrogen Corporation (Carlsbad/CA, USA) PV4753
T1 sequence (P42345 1360-2549 limits assumed): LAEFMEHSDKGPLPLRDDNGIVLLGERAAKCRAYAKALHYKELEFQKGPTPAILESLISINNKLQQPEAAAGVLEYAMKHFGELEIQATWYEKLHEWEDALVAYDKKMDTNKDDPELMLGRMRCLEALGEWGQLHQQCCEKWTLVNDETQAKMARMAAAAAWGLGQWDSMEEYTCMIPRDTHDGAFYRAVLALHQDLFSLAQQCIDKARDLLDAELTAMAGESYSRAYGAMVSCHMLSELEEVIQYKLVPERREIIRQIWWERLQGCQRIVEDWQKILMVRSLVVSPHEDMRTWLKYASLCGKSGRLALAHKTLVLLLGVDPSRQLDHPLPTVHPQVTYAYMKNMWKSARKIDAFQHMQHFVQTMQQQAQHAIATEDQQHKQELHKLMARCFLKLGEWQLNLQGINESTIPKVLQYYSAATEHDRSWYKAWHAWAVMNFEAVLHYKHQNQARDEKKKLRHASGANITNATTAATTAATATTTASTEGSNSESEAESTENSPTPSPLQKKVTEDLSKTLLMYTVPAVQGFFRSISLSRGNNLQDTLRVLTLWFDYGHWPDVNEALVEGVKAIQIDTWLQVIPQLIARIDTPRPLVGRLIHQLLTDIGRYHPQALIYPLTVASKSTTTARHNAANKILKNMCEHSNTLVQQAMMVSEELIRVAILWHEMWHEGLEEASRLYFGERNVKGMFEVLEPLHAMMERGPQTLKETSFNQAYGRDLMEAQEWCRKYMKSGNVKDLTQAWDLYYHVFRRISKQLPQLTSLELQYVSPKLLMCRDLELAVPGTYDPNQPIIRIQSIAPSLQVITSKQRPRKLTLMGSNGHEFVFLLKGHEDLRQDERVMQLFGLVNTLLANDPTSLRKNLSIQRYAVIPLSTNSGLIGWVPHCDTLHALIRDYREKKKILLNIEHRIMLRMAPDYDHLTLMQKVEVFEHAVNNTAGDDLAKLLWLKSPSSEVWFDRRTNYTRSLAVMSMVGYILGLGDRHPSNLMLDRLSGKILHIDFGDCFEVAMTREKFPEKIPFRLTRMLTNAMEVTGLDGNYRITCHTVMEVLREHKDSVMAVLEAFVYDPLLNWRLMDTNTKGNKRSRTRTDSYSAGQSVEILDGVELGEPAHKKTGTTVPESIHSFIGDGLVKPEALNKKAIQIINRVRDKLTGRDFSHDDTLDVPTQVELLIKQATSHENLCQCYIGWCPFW
How it was run: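 TR-FRET detection of pThr46 on GFP-4EBP1 (400 nM final) using Tb3+-labelled antibody (0.5 nM), added with EDTA to stop reactions. Reactions ran at rt with 0.5 nM mTOR and 8 μM ATP (final) in HEPES pH 7.5 buffer containing 10 mM MnCl2.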

[3] = tested on: PKB Ser473 phosphorylation in Rat1-myr-HA-p110 delta cells; assay: Reverse protein array assay, PKB Ser473 phosphorylation in Rat1-myr-p110 delta cells; type: cell-based; settings: read-out: p-PKB IC50
How it was run: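 Rat1 cells expressing myristoylated HA-tagged p110 alpha, beta or delta were plated for at least 20 h, then exposed to 8-step serial compound dilutions (0.2% DMSO final) for 30 min at 37 °C. Lysates were spotted at four dilutions on protein microarrays, and relative fluorescence intensity of phospho-Ser473 PKB was calculated.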

[4] = tested on: S6 Ribosomal Protein phosphorylation Ser235/236 in TSC1 null mouse embryo fibroblast (MEF) cells; assay: Reverse protein array assay, S6 Ribosomal Protein phosphorylation Ser235/236 in TSC1 null MEF cells; type: cell-based; settings: 1 h, pS6 ribosomal protein Ser235/236, 60 minutes incubation, read-out: p-S6 IC50
How it was run: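 TSC1−/− MEFs, seeded and held ≥20 h at 37 °C/5% CO2, were exposed to 8-step serial compound dilutions (0.02% DMSO final; DMSO vehicle control) for 60 min at 37 °C. Cells were then lysed on ice for 10 min and lysates spotted onto reverse protein array chips.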

| Compound | solubility [1] [µg/mL] | IC50 [2] [nM] | IC50 [3] [nM] | IC50 [4] [nM] |
| --- | --- | --- | --- | --- |
| CNc1cc(-c2ccc3ncc4c(c3c2)n(-c2cn(C)nc2C)c(=O)n4C)cnc1CO [Example 158.1, 1-(1,3-Dimethyl-1H-pyrazol-4-yl)-8-(6-hydroxymethyl-5-methylamino-pyridin-3-yl)-3-methyl-1,3-dihydro-imidazo[4,5-c]quinolin-2-one] | > 429 | 4 | 45 | 8 |
| CNc1cc(-c2ccc3ncc4c(c3c2)n(-c2cn(C)nc2Cl)c(=O)n4C)cnc1COC [Example 160.1, 1-(3-Chloro-1-methyl-1H-pyrazol-4-yl)-8-(6-methoxymethyl-5-methylamino-pyridin-3-yl)-3-methyl-1,3-dihydro-imidazo[4,5-c]quinolin-2-one] | 32 (≈ 69 µM) | < 3 | 10 | < 0.5 |
| CNc1ncc(-c2ccc3ncc4c(c3c2)n(-c2cn(C(C)C)nc2C)c(=O)n4C)cc1CO [Example 171, 8-(5-Hydroxymethyl-6-methylamino-pyridin-3-yl)-1-(1-isopropyl-3-methyl-1H-pyrazol-4-yl)-3-methyl-1,3-dihydro-imidazo[4,5-c]quinolin-2-one] | 5 (≈ 10.9 µM) | < 3 | 41 | 3 |
| Cc1nn(C)cc1-n1c(=O)n(C)c2cnc3ccc(-c4cncc(NC(C)C)c4)cc3c21 [Example 177.1, 1-(1,3-Dimethyl-1H-pyrazol-4-yl)-8-(5-isopropylamino-pyridin-3-yl)-3-methyl-1,3-dihydro-imidazo[4,5-c]quinolin-2-one] | 169 (≈ 395 µM) | 3 | 39 | 2 |
| Cc1nn(C)cc1-n1c(=O)n(C)c2cnc3ccc(-c4cncc(OC(CF)CF)c4)cc3c21 [Example 182, 1-(1,3-Dimethyl-1H-pyrazol-4-yl)-8-[5-(2-fluoro-1-fluoromethyl-ethoxy)-pyridin-3-yl]-3-methyl-1,3-dihydro-imidazo[4,5-c]quinolin-2-one] | 56 (≈ 121 µM) | 6 | 56 | 5 |
| COc1cc(-c2ccc3ncc4c(c3c2)n(-c2cn(C(C)C)nc2C)c(=O)n4C)cnc1CO [Example 194.1, 8-(6-Hydroxymethyl-5-methoxy-pyridin-3-yl)-1-(1-isopropyl-3-methyl-1H-pyrazol-4-yl)-3-methyl-1,3-dihydro-imidazo[4,5-c]quinolin-2-one] | 129 (≈ 281 µM) | 101 | 145 | 20 |
| COc1cc(-c2ccc3ncc4c(c3c2)n(-c2cn(C)nc2Cl)c(=O)n4C)cnc1CO [Example 194.2, 1-(3-chloro-1-methyl-1H-pyrazol-4-yl)-8-(6-hydroxymethyl-5-methoxy-pyridin-3-yl)-3-methyl-1,3-dihydro-imidazo[4,5-c]quinolin-2-one] | 94 (≈ 208 µM) | 6 | 27 | 2 |
| CCOCc1ncc(-c2ccc3ncc4c(c3c2)n(-c2cn(C)nc2Cl)c(=O)n4C)cc1OC [Example 196.1, 1-(3-Chloro-1-methyl-1H-pyrazol-4-yl)-8-(6-ethoxymethyl-5-methoxy-pyridin-3-yl)-3-methyl-1,3-dihydro-imidazo[4,5-c]quinolin-2-one] | 44 (≈ 91.9 µM) | 45 | 58 | 10 |
| COc1cc(-c2ccc3ncc4c(c3c2)n(-c2cn(CCO)nc2C)c(=O)n4C)cnc1C [Example 211.1, 1-[1-(2-Hydroxy-ethyl)-3-methyl-1H-pyrazol-4-yl]-8-(5-methoxy-6-methyl-pyridin-3-yl)-3-methyl-1,3-dihydro-imidazo[4,5-c]quinolin-2-one] | 3 (≈ 6.75 µM) | 13 | 211 | 21 |
| COc1ncc(-c2ccc3ncc4c(c3c2)n(-c2cn(C(C)C)nc2C)c(=O)n4C)c(OC)n1 [Example 234.3, 8-(2,4-Dimethoxy-pyrimidin-5-yl)-1-(1-isopropyl-3-methyl-1H-pyrazol-4-yl)-3-methyl-1,3-dihydro-imidazo[4,5-c]quinolin-2-one] | 13 (≈ 28.3 µM) | 17 | 30 | 2 |
| Cc1nn(C)cc1-n1c(=O)n(C)c2cnc3ccc(-c4cnc(CO)c(Cl)c4)cc3c21 [Example 238, 8-(5-Chloro-6-hydroxymethyl-pyridin-3-yl)-1-(1,3-dimethyl-1H-pyrazol-4-yl)-3-methyl-1,3-dihydro-imidazo[4,5-c]quinolin-2-one] | 8 (≈ 18.4 µM) | 174 | 327 | 6 |
| CCOC(C)(C)c1cncc(-c2ccc3ncc4c(c3c2)n(-c2cn(C)nc2C)c(=O)n4C)c1 [Example 240, 1-(1,3-Dimethyl-1H-pyrazol-4-yl)-8-[5-(1-ethoxy-1-methyl-ethyl)-pyridin-3-yl]-3-methyl-1,3-dihydro-imidazo[4,5-c]quinolin-2-one] | 4 (≈ 8.76 µM) | 79 | 131 | 11 |
| C=CCn1c(=O)n(-c2cn(C)nc2C)c2c3cc(-c4cncc(N)c4)ccc3ncc21 [Example 246, 3-Allyl-8-(5-amino-pyridin-3-yl)-1-(1,3-dimethyl-1H-pyrazol-4-yl)-1,3-dihydro-imidazo[4,5-c]quinolin-2-one] | 75 (≈ 182 µM) | 147 | 837 | 41 |
| CCN(CC)C(=O)Cn1cc(-n2c(=O)n(C)c3cnc4ccc(-c5cnc(N6CCCC6)nc5)cc4c32)c(C)n1 [Example 247.1, N,N-Diethyl-2-{3-methyl-4-[3-methyl-2-oxo-8-(2-pyrrolidin-1-yl-pyrimidin-5-yl)-2,3-dihydro-imidazo[4,5-c]quinolin-1-yl]-pyrazol-1-yl}-acetamide] | 69 (≈ 128 µM) | 13 | 157 | 3 |
